Active and inactive are the calls of the source. The calls are words filed in the database; no cut-off is given here.

This note sets out measurements from ChEMBL document CHEMBL4052771, “3,5-Bis(3-dimethylaminomethyl-4-hydroxybenzylidene)-4-piperidone and related compounds induce glutathione oxidation and mitochondria-mediated cell death in HCT-116 colon cancer cells” (Bioorg Med Chem Lett, 2017).

Series [1] deals with HCT-116. Kind of series: Antiproliferative activity against human HCT116 cells after 48 hrs by sulforhodamine B assay. It counts as functional. The settings on record: HCT-116, 48 h. On the technique in general: Sulforhodamine B stains cellular protein and so reports cell mass.
Series [2] deals with HCT-116. Kind of series: Induction of glutathione oxidation in human HCT116 cells assessed as increase in GSSG/GSH ratio at 500 uM in presence of NADPH after 48 hrs by Ellman's method. It counts as functional, cell-based. A general note: DTNB colorimetry detects thiols as they appear.
For series [3], the system named is HCT-116. Kind of series: Induction of mitochondrial membrane potential loss in human HCT116 cells at antiproliferative GI50 after 48 hrs by JC-1 staining based fluorescence assay. It counts as functional, cell-based.
The nature of series [4]: Selectivity index, ratio of GI50 for human CRL1790 cells to GI50 for human HCT116 cells. Type of series: functional.
The test system of series [5] is HCT-116. Description: Induction of reactive oxygen species generation in human HCT116 cells at antiproliferative GI50 after 60 mins by DCFH-DA probe based assay. Type of series: functional, cell-based.
Series [6] is described as follows: Cytotoxicity against human CRL1790 cells assessed as reduction in cell viability after 48 hrs by sulforhodamine B assay. Type of series: cell-based. Particulars: CRL1790 (CCD-841CoN) cells.
The test system of series [7] is HCT-116. Description: Induction of mitochondrial superoxide generation in human HCT116 cells at antiproliferative GI50 after 60 mins by mitoSOX red-probe based fluorescence assay. Type of series: functional, cell-based.
Series [8] relates to Liver. Description: Induction of mitochondrial swelling in Wistar rat liver […] at 0.1 uM after 20 mins in presence of pyruvate and malate by spectroscopic analysis. It counts as functional.
The test system of series [9] is Liver. Kind of series: Stimulation of mitochondrial respiration in Wistar rat liver […] assessed as oxygen consumption rate at 20 and 25 uM using pyruvate and malate as respiratory substrate after 4 mins. It counts as functional. For orientation: Liver microsomes are a subcellular fraction often used to study metabolism.
For series [10], the system named is Liver. Kind of series: Stimulation of mitochondrial respiration in Wistar rat liver […] assessed as oxygen consumption rate at 0.1 and 10 uM using pyruvate and malate as respiratory substrate after 4 mins. It counts as functional.

In the case of `COc1cc(/C=C/C(=O)CC(=O)/C=C/c2ccc(O)c(OC)c2)ccc1O` [CURCUMIN], halving of growth with HCT-116 [1] (GI50) required 3.5 µM. Also, the result in the series on HCT-116 [2], in the series with HCT-116 [3], in the series on HCT-116 [5], with HCT-116 [7] and in the series with Liver [8] was Active. In addition, the RatioGI50 in series [4] is listed as 16.7. Further, the GI50 at 48 h in series [6] is 58.6 µM.
Consider `O=[N+]([O-])c1ccc(O)c([N+](=O)[O-])c1`, for which, in the series on Liver [9], the outcome was Active.
As for `O=c1[nH]cc(F)c(=O)[nH]1` [FLUOROURACIL], the GI50 in the series with HCT-116 [1] came out at 5.47 µM. In addition, the RatioGI50 in series [4] was found to be 1.88. Also, the outcome in the series on Liver [10] and with Liver [8] was inactive. The GI50 at 48 h in series [6] amounted to 10.3 µM.

Broadly, the GI50 is the concentration that inhibits growth by half.
